Measurements: patent US20100278938A1, “GENETIC TEST AND PET DIET” (MARS, INC, priority 2007, published 2010)

Assay: Pharmacokinetic study of oral zinc gluconate, plasma zinc by atomic absorption spectrometry
Type: in vivo, Labrador Retrievers
Design: unit not given here
Description: Two unrelated nine-year old, healthy Labrador Retrievers (1 female and 1 male) were used in a pharmacokinetic study. Food was withheld for a 12-hour period prior to oral administration of zinc, and during the initial 6-hour testing period. Water was freely available. […] Heparinized blood samples (4 ml) were collected from the jugular vein before dosing (time 0) and 15, 30, 45, 60, 90, 120 minutes, and 4, 8, 12 and 24 hours after application of the drug. Plasma was stored at −20° C. until analysis for zinc using atomic absorption spectrometry.
In addition the test was used to detect a difference between group-1 and group-2 before the study, at recheck-1, and at recheck-2 (significance level p<0.05).

zinc gluconate
K01: absorption rate constant (Dog 1, oral 10 mg/kg): 0.5672 | K10: elimination rate constant (Dog 1, oral 10 mg/kg): 0.05373 | K01: absorption rate constant (Dog 2, oral 5 mg/kg): 1.161 | K10: elimination rate constant (Dog 2, oral 5 mg/kg): 0.03789
